The target in the experiment is MCH receptor (Homo sapiens, UniProt Q99705). Briefly: High throughput functional screening FLIPR/FDSS6000: inhibition of MCH-evoked intracellular Ca2+ changes. The experiment is classed as cell-based. The note with it: class by percent of control at 10^-7 M or IC50. The procedure, abridged: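 Seed cells the day before, then load them with Fluo4-AM for one hour at 37° C and wash in HEPES-buffered HBSS, pH 7.4. Add compound for 3 min, then stimulate with 50 nM MCH. Monitor the calcium transient for 290 s.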

The text below walks through data of patent US20070010671A1, “Novel quinazoline derivatives and methods of treatment related to the use thereof” (priority 2003, published 2007).

The structures appear in SMILES notation.

Turning to `CN(C)c1nc(N[C@H]2CC[C@@H](CNC(=S)NCCCc3ccccc3)CC2)nc2ccccc12` [compound 689], the class is 3 (Class 3: The value of percent of control at 10^−7 M was more than 60% or the value of IC50 was more than 200 nM.).
Consider `CN(C)c1nc(N[C@H]2CC[C@@H](CNC(=S)Nc3ccc(OCc4ccccc4)cc3)CC2)nc2ccccc12` [compound 690], for which the class is on record as 3 (Class 3: The value of percent of control at 10^−7 M was more than 60% or the value of IC50 was more than 200 nM.).
For `Cc1cc(Br)cc(C)c1NC(=S)NC[C@H]1CC[C@@H](Nc2nc(N(C)C)c3ccccc3n2)CC1` [compound 691, N-(4-bromo-2,6-dimethylphenyl)-N′-[(cis-4-{[4-(dimethylamino)quinazolin-2-yl]amino}cyclohexyl)methyl]thiourea], the class was 1 (Class 1: The value of percent of control at 10^−7 M was less than 40% or the value of IC50 was less than 50 nM.).
With `Cc1cc(Br)ccc1NC(=S)NC[C@H]1CC[C@@H](Nc2nc(N(C)C)c3ccccc3n2)CC1` [compound 692], the class is listed as 3 (Class 3: The value of percent of control at 10^−7 M was more than 60% or the value of IC50 was more than 200 nM.).
For the compound `CN(C)c1nc(N[C@H]2CC[C@@H](CNC(=S)Nc3ccc(Br)cc3C(F)(F)F)CC2)nc2ccccc12` [compound 693, N-[4-bromo-2-(trifluoromethyl)phenyl]-N′-[(cis-4-{[4-(dimethylamino)quinazolin-2-yl]amino}cyclohexyl)methyl]thiourea], the class is recorded as 2 (Class 2: The value of percent of control at 10^−7 M was from 40% to 60% or the value of IC50 was from 50 nM to 200 nM.).
Take `Cc1cc(Cl)ccc1NC(=S)NC[C@H]1CC[C@@H](Nc2nc(N(C)C)c3ccccc3n2)CC1` [compound 694]: the class was 3 (Class 3: The value of percent of control at 10^−7 M was more than 60% or the value of IC50 was more than 200 nM.).
On to `CN(C)c1nc(N[C@H]2CC[C@@H](CNC(=S)NCc3ccc(Cl)cc3)CC2)nc2ccccc12` [compound 695], for which the class was 3 (Class 3: The value of percent of control at 10^−7 M was more than 60% or the value of IC50 was more than 200 nM.).
Turning to `CCOC(=O)c1ccc(NC(=S)NC[C@H]2CC[C@@H](Nc3nc(N(C)C)c4ccccc4n3)CC2)cc1` [compound 696], the class is on record as 3 (Class 3: The value of percent of control at 10^−7 M was more than 60% or the value of IC50 was more than 200 nM.).
In the case of `CN(C)c1nc(N[C@H]2CC[C@@H](CNC(=S)NCc3ccc(F)cc3)CC2)nc2ccccc12` [compound 698], the class was 3 (Class 3: The value of percent of control at 10^−7 M was more than 60% or the value of IC50 was more than 200 nM.).
On to `CC(C)c1ccc(NC(=S)NC[C@H]2CC[C@@H](Nc3nc(N(C)C)c4ccccc4n3)CC2)cc1` [compound 699], for which the class is 3 (Class 3: The value of percent of control at 10^−7 M was more than 60% or the value of IC50 was more than 200 nM.).
In the case of `COc1ccc(NC(=S)NC[C@H]2CC[C@@H](Nc3nc(N(C)C)c4ccccc4n3)CC2)c([N+](=O)[O-])c1` [compound 700], the class is listed as 3 (Class 3: The value of percent of control at 10^−7 M was more than 60% or the value of IC50 was more than 200 nM.).
Under `COc1ccc(CNC(=S)NC[C@H]2CC[C@@H](Nc3nc(N(C)C)c4ccccc4n3)CC2)cc1` [compound 701] stands 3 (Class 3: The value of percent of control at 10^−7 M was more than 60% or the value of IC50 was more than 200 nM.); under `COC(=O)c1ccc(NC(=S)NC[C@H]2CC[C@@H](Nc3nc(N(C)C)c4ccccc4n3)CC2)cc1` [compound 702], 3 (Class 3: The value of percent of control at 10^−7 M was more than 60% or the value of IC50 was more than 200 nM.); under `Cc1ccc(NC(=S)NC[C@H]2CC[C@@H](Nc3nc(N(C)C)c4ccccc4n3)CC2)c([N+](=O)[O-])c1` [compound 703], 3 (Class 3: The value of percent of control at 10^−7 M was more than 60% or the value of IC50 was more than 200 nM.).
As for `Cc1ccc(CNC(=S)NC[C@H]2CC[C@@H](Nc3nc(N(C)C)c4ccccc4n3)CC2)cc1` [compound 704], the class is recorded as 3 (Class 3: The value of percent of control at 10^−7 M was more than 60% or the value of IC50 was more than 200 nM.).
As for `CCCCc1ccc(NC(=S)NC[C@H]2CC[C@@H](Nc3nc(N(C)C)c4ccccc4n3)CC2)cc1` [compound 705], the class is 3 (Class 3: The value of percent of control at 10^−7 M was more than 60% or the value of IC50 was more than 200 nM.).
With `COc1ccc(Cl)cc1NC(=S)NC[C@H]1CC[C@@H](Nc2nc(N(C)C)c3ccccc3n2)CC1` [compound 706], the class is on record as 2 (Class 2: The value of percent of control at 10^−7 M was from 40% to 60% or the value of IC50 was from 50 nM to 200 nM.).
For `CN(C)c1nc(N[C@H]2CC[C@@H](CNC(=S)NC(c3ccccc3)c3ccccc3)CC2)nc2ccccc12` [compound 708, N-[(cis-4-{[4-(dimethylamino)quinazolin-2-yl]amino}cyclohexyl)methyl]-N′-(diphenylmethyl)thiourea] the value was 2 (Class 2: The value of percent of control at 10^−7 M was from 40% to 60% or the value of IC50 was from 50 nM to 200 nM.); for `CN(C)c1nc(N[C@H]2CC[C@@H](CNC(=S)NC3CCCCCCCCCCC3)CC2)nc2ccccc12` [compound 709, N-cyclododecyl-N′-[(cis-4-{[4-(dimethylamino)quinazolin-2-yl]amino}cyclohexyl)methyl]thiourea], 2 (Class 2: The value of percent of control at 10^−7 M was from 40% to 60% or the value of IC50 was from 50 nM to 200 nM.).
For `CN(C)c1nc(N[C@H]2CC[C@@H](CNC(=S)NCC3CCCCC3)CC2)nc2ccccc12` [compound 710, N-(cyclohexylmethyl)-N′-[(cis-4-{[4-(dimethylamino)quinazolin-2-yl]amino}cyclohexyl)methyl]thiourea], the class was 2 (Class 2: The value of percent of control at 10^−7 M was from 40% to 60% or the value of IC50 was from 50 nM to 200 nM.).
Take `CN(C)c1nc(N[C@H]2CC[C@@H](CNC(=S)NC3CCCCCCC3)CC2)nc2ccccc12` [compound 711]: the class is 3 (Class 3: The value of percent of control at 10^−7 M was more than 60% or the value of IC50 was more than 200 nM.).
With `CN(C)c1nc(N[C@H]2CC[C@@H](CNC(=S)NC3CC3)CC2)nc2ccccc12` [compound 712], the class is on record as 3 (Class 3: The value of percent of control at 10^−7 M was more than 60% or the value of IC50 was more than 200 nM.).
As to `CN(C)c1nc(N[C@H]2CC[C@@H](CNC(=S)NCc3cccc4ccccc34)CC2)nc2ccccc12` [compound 713], the class is listed as 3 (Class 3: The value of percent of control at 10^−7 M was more than 60% or the value of IC50 was more than 200 nM.).
Turning to `CN(C)c1nc(N[C@H]2CC[C@@H](CNC(=S)NCC(c3ccccc3)c3ccccc3)CC2)nc2ccccc12` [compound 714], the class is on record as 3 (Class 3: The value of percent of control at 10^−7 M was more than 60% or the value of IC50 was more than 200 nM.).
On to `CN(C)c1nc(N[C@H]2CC[C@@H](CNC(=S)Nc3c(Cl)c(Cl)cc(Cl)c3Cl)CC2)nc2ccccc12` [compound 715], for which the class is 1 (Class 1: The value of percent of control at 10^−7 M was less than 40% or the value of IC50 was less than 50 nM.).
For the compound `COc1cccc(CNC(=S)NC[C@H]2CC[C@@H](Nc3nc(N(C)C)c4ccccc4n3)CC2)c1OC` [compound 716], the class is reported as 2 (Class 2: The value of percent of control at 10^−7 M was from 40% to 60% or the value of IC50 was from 50 nM to 200 nM.).
Take `Cc1cc(C)c(NC(=S)NC[C@H]2CC[C@@H](Nc3nc(N(C)C)c4ccccc4n3)CC2)cc1C` [compound 717]: the class was 3 (Class 3: The value of percent of control at 10^−7 M was more than 60% or the value of IC50 was more than 200 nM.).
Regarding `CN(C)c1nc(N[C@H]2CC[C@@H](CNC(=S)NCc3ccc(Cl)cc3Cl)CC2)nc2ccccc12` [compound 718], the class is 2 (Class 2: The value of percent of control at 10^−7 M was from 40% to 60% or the value of IC50 was from 50 nM to 200 nM.).
As for `CN(C)c1nc(N[C@H]2CC[C@@H](CNC(=S)Nc3cc(Br)ccc3Br)CC2)nc2ccccc12` [compound 719], the class is on record as 3 (Class 3: The value of percent of control at 10^−7 M was more than 60% or the value of IC50 was more than 200 nM.).
In the case of `COc1ccc(OC)c(CCNC(=S)NC[C@H]2CC[C@@H](Nc3nc(N(C)C)c4ccccc4n3)CC2)c1` [compound 720], the class is 3 (Class 3: The value of percent of control at 10^−7 M was more than 60% or the value of IC50 was more than 200 nM.).
Turning to `CN(C)c1nc(N[C@H]2CC[C@@H](CNC(=S)Nc3ccccc3-c3ccccc3)CC2)nc2ccccc12` [compound 721], the class is given as 3 (Class 3: The value of percent of control at 10^−7 M was more than 60% or the value of IC50 was more than 200 nM.).
Take `CN(C)c1nc(N[C@H]2CC[C@@H](CNC(=S)Nc3cc([N+](=O)[O-])ccc3Cl)CC2)nc2ccccc12` [compound 722]: the class was 3 (Class 3: The value of percent of control at 10^−7 M was more than 60% or the value of IC50 was more than 200 nM.).
Consider `CN(C)c1nc(N[C@H]2CC[C@@H](CNC(=S)Nc3ccccc3C#N)CC2)nc2ccccc12` [compound 723], for which the class was 3 (Class 3: The value of percent of control at 10^−7 M was more than 60% or the value of IC50 was more than 200 nM.).
On to `CN(C)c1nc(N[C@H]2CC[C@@H](CNC(=S)NCc3ccccc3F)CC2)nc2ccccc12` [compound 724], for which the class was 3 (Class 3: The value of percent of control at 10^−7 M was more than 60% or the value of IC50 was more than 200 nM.).
In the case of `COc1ccc([N+](=O)[O-])cc1NC(=S)NC[C@H]1CC[C@@H](Nc2nc(N(C)C)c3ccccc3n2)CC1` [compound 725], the class is 2 (Class 2: The value of percent of control at 10^−7 M was from 40% to 60% or the value of IC50 was from 50 nM to 200 nM.).
Under `Cc1cc([N+](=O)[O-])ccc1NC(=S)NC[C@H]1CC[C@@H](Nc2nc(N(C)C)c3ccccc3n2)CC1` [compound 726] stands 3 (Class 3: The value of percent of control at 10^−7 M was more than 60% or the value of IC50 was more than 200 nM.).
